Assay results from PMC7247818, “Demonstration of Binding Induced Structural Plasticity in a SH2 Domain” (Frontiers in Molecular Biosciences, 2020).
Where a SMILES comes first, the peptide text is derived from it.

Columns and labels:
Details in all cases: 10°C
[1] = biological target: T1, N-SH2 domain of PI3K, T48S variant (Homo sapiens, UniProt P27986, T369S); experiment: Stopped-flow binding kinetics, N-SH2 T48S
T1 construct: made in house
Method: (§1) N-SH2 wild-type and all the site-directed variants were expressed and purified as described previously ([Visconti et al., 2019]). All the mutants were obtained using a QuickChange Lightning Site-Directed Mutagenesis kit (Agilent technologies), accordingly to manufacturer instructions. Peptides with sequence TNSEDNpYVPMNPG mimicking wild-type Gab2 and TNSEDNpYVPANPG mimicking the M457A variant of Gab2 were purchased from GenScript Biotech Corporation.
(§2) Binding kinetics experiments were performed using a single-mixing SX-18 stopped-flow instrument (Applied Photophysics); all binding experiments were conducted in 50 mM Hepes pH 7.4 300 mM NaCl at 10°C. Excitation was at 280 nm and emission was collected using a […] cut-off glass filter. Pseudo-first order binding experiments were performed mixing a constant concentration of dansylated Gab2_448–460 and Gab2_448–460 M457A (1 μM) vs. N-SH2 wt and its mutants at concentrations ranging from […]. For each N-SH2 concentration, usually 5 individual traces were averaged and in all cases the fluorescence time courses obtained was satisfactorily fitted by using a single exponential equation.
(§3) One of the aims of this study is to depict the molecular details of the interaction between the N-SH2 domain of PI3K and Gab2. […] To monitor binding by fluorescence, a dansyl group was added at the N-terminus of the peptide. The binding reaction was monitored by stopped-flow experiments following the change in FRET signal, taking advantage of the two Trp residues on the N-SH2 domain in positions 12 and 14 as fluorescence donor and the dansyl group on Gab2_448–460 as acceptor. […]
(§4) with kon being the slope of the line and koff the intercept with the y-axis. […] Kinetic parameters extracted from data together with the calculated changes in activation and equilibrium free energies are reported in Table 1. […]

[2] = biological target: T2, N-SH2 domain of PI3K, A30G variant (Homo sapiens, UniProt P27986, A351G); experiment: Stopped-flow binding kinetics, N-SH2 A30G
T2 construct: made in house
Method: as §1, §2
(§5) One of the aims of this study is to depict the molecular details of the interaction between the N-SH2 domain of PI3K and Gab2. A powerful strategy to achieve this goal relies on perturbing the system by producing conservative site-directed variants while monitoring the effect of mutations on the association and dissociation rate constants between the interacting partners (kon and koff respectively). Thus, we designed and successfully produced 21 site-directed variants of the N-SH2 domain and challenged them vs. a peptide mimicking the region of Gab2 ranging from residue 448–460 (Gab2_448–460), containing the pY-X-X-M motif that is specifically recognized by the N-SH2 domain ([Waksman et al., 1992]; [Songyang et al., 1993]). The choise of mutations was designed in analogy to phi-value analysis methodology in protein folding studies ([Fersht and Sato, 2004]). […] To monitor binding by fluorescence, a dansyl group was added at the N-terminus of the peptide. The binding reaction was monitored by stopped-flow experiments following the change in FRET signal, taking advantage of the two Trp residues on the N-SH2 domain in positions 12 and 14 as fluorescence donor and the dansyl group on Gab2_448–460 as acceptor. The experiments were performed in pseudo-first order conditions with Gab2_448–460 at fixed concentration of 1 μM rapidly mixed vs. large excess of N-SH2 wt and its variants, ranging from 4 to 14 μM, in buffer Hepes 50 mM, NaCl 300 mM, pH 7.4, at 10°C.
(§6) with kon being the slope of the line and koff the intercept with the y-axis. Since indirect calculation of koff obtained by extrapolation is associated with high experimental error, we performed displacement experiments to directly measure koff by challenging a pre-incubated complex of dansylated Gab2_448–460 and N-SH2 domain both at the concentration of 1 μM vs. a large excess of non-dansylated Gab2_448–460 (50 μM). Kinetic parameters extracted from data together with the calculated changes in activation and equilibrium free energies are reported in Table 1. Analysis of kinetic data highlights that T48S, L51A, and L59A variations cause a detectable decrease of the affinity of the domain for Gab2_448–460 of ∼10-fold, affecting both the kon and koff. […] Since L99 residue is part of the binding pocket, this dramatic effect on the binding affinity is expected.
(§7) SH2 domains bind ligands with a phosphorylated tyrosine in their sequence. The N-SH2 domain of PI3K is known to recognize a specific consensus sequences that present a methionine in position +3 in respect to the phosphotyrosine (M457 in Gab2). […]

[3] = biological target: T3, N-SH2 domain of PI3K, I62V variant (Homo sapiens, UniProt P27986, I383V); experiment: Stopped-flow binding kinetics, N-SH2 I62V
T3 construct: made in house
Method: as §1, §2, §5, §6, §7

[4] = biological target: T4, N-SH2 domain of PI3K, I60V variant (Homo sapiens, UniProt P27986, I381V); experiment: Stopped-flow binding kinetics, N-SH2 I60V
T4 construct: made in house
Method: as §1, §2, §5, §6, §7

[5] = biological target: T5, N-SH2 domain of PI3K, L51A variant (Homo sapiens, UniProt P27986, L372A); experiment: Stopped-flow binding kinetics, N-SH2 L51A
T5 construct: made in house
Method: as §1, §2, §5, §6, §7

[6] = biological target: T6, N-SH2 domain of PI3K, V22A variant (Homo sapiens, UniProt P27986, V343A); experiment: Stopped-flow binding kinetics, N-SH2 V22A
T6 construct: made in house
Method: as §1, §2, §5, §6, §7

[7] = biological target: T7, N-SH2 domain of PI3K, T50S variant (Homo sapiens, UniProt P27986, T371S); experiment: Stopped-flow binding kinetics, N-SH2 T50S
T7 construct: made in house
Method: as §1, §2, §5, §6, §7

[8] = biological target: T8, N-SH2 domain of PI3K, L75A variant (Homo sapiens, UniProt P27986, L396A); experiment: Stopped-flow binding kinetics, N-SH2 L75A
T8 construct: made in house
Method: as §1, §2, §5, §6, §7

[9] = biological target: T9, N-SH2 domain of PI3K, L35A variant (Homo sapiens, UniProt P27986, L356A); experiment: Stopped-flow binding kinetics, N-SH2 L35A
T9 construct: made in house
Method: as §1, §2, §3, §4

[10] = biological target: T10, N-SH2 domain of PI3K, L99A variant (Homo sapiens, UniProt P27986, L420A); experiment: Stopped-flow binding kinetics, N-SH2 L99A
T10 construct: made in house
Method: as §1, §2, §3, §4

[11] = biological target: T11, N-SH2 domain of PI3K, V81A variant (Homo sapiens, UniProt P27986, V402A); experiment: Stopped-flow binding kinetics, N-SH2 V81A
T11 construct: made in house
Method: as §1, §2, §5, §6, §7

[12] = biological target: T12, N-SH2 domain of PI3K, T33S variant (Homo sapiens, UniProt P27986, T354S); experiment: Stopped-flow binding kinetics, N-SH2 T33S
T12 construct: made in house
Method: as §1, §2, §5, §6, §7

[13] = biological target: T13, N-SH2 domain of PI3K, L104A variant (Homo sapiens, UniProt P27986, L425A); experiment: Stopped-flow binding kinetics, N-SH2 L104A
T13 construct: made in house
Method: as §1, §2, §5, §6, §7

[14] = displacement experiment, pH 7.4, 300 mM NaCl
[15] = stopped-flow FRET, 1 μM dansylated peptide, 50 mM Hepes pH 7.4, 300 mM NaCl
[16] = stopped-flow kinetics, pH 7.4, 300 mM NaCl

T11 sequence (P27986 333-428 V402A): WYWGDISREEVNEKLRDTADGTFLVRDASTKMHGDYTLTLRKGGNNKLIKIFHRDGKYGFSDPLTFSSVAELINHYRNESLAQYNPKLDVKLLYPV
T13 sequence (P27986 333-428 L425A): as the sequence (P27986 333-428 V402A) above, with A70V, L93A counted along it
T12 sequence (P27986 333-428 T354S): as the sequence (P27986 333-428 V402A) above, with T22S, A70V counted along it
T6 sequence (P27986 333-428 V343A): as the sequence (P27986 333-428 V402A) above, with V11A, A70V counted along it
T7 sequence (P27986 333-428 T371S): as the sequence (P27986 333-428 V402A) above, with T39S, A70V counted along it
T1 sequence (P27986 333-428 T369S): as the sequence (P27986 333-428 V402A) above, with T37S, A70V counted along it
T4 sequence (P27986 333-428 I381V): as the sequence (P27986 333-428 V402A) above, with I49V, A70V counted along it
T3 sequence (P27986 333-428 I383V): as the sequence (P27986 333-428 V402A) above, with I51V, A70V counted along it
T5 sequence (P27986 333-428 L372A): as the sequence (P27986 333-428 V402A) above, with L40A, A70V counted along it
T10 sequence (P27986 333-428 L420A): as the sequence (P27986 333-428 V402A) above, with A70V, L88A counted along it
T8 sequence (P27986 333-428 L396A): as the sequence (P27986 333-428 V402A) above, with L64A, A70V counted along it
T2 sequence (P27986 333-428 A351G): as the sequence (P27986 333-428 V402A) above, with A19G, A70V counted along it
T9 sequence (P27986 333-428 L356A): as the sequence (P27986 333-428 V402A) above, with L24A, A70V counted along it

With `CSCC[C@H](NC(=O)[C@@H]1CCCN1C(=O)[C@@H](NC(=O)[C@H](Cc1ccc(OP(=O)(O)O)cc1)NC(=O)[C@H](CC(N)=O)NC(=O)[C@H](CC(=O)O)NC(=O)[C@H](CCC(=O)O)NC(=O)[C@H](CO)NC(=O)[C@H](CC(N)=O)NC(=O)[C@@H](N)[C@@H](C)O)C(C)C)C(=O)N[C@@H](CC(N)=O)C(=O)N1CCC[C@H]1C(=O)NCC(=O)O` [Gab2_448–460] (HELM PEPTIDE1{T.N.S.E.D.N.[O=C([C@H](Cc1ccc(OP(=O)(O)O)cc1)N[*:1])[*:2]].V.P.M.N.P.G}$$$$V2.0) the koff [1, 14] was 23 ± 1 s⁻¹, the kon [1, 15] was 6.4e+06 ± 500000 M⁻¹ s⁻¹ and the Kd [1, 16] was 3700 ± 100 nM. The koff [2, 14] was 3.7 ± 0.2 s⁻¹, the kon [2, 15] was 2.92e+07 ± 2e+06 M⁻¹ s⁻¹ and the Kd [2, 16] was 100 ± 100 nM. For the same compound, the koff [3, 14] was 4.5 ± 0.2 s⁻¹, the kon [3, 15] was 1.55e+07 ± 1.4e+06 M⁻¹ s⁻¹ and the Kd [3, 16] was 300 ± 100 nM. It also gave a koff [4, 14] of 6.9 ± 0.3 s⁻¹, a kon [4, 15] of 9.1e+06 ± 1.1e+06 M⁻¹ s⁻¹ and a Kd [4, 16] of 800 ± 100 nM. It also gave a koff [5, 14] of 18 ± 1 s⁻¹, a kon [5, 15] of 5.6e+06 ± 1.1e+06 M⁻¹ s⁻¹ and a Kd [5, 16] of 3200 ± 200 nM. It also gave a koff [6, 14] of 7.4 ± 0.4 s⁻¹, a kon [6, 15] of 1.12e+07 ± 400000 M⁻¹ s⁻¹ and a Kd [6, 16] of 700 ± 100 nM. For the same compound, the koff [7, 14] was 9.3 ± 0.5 s⁻¹, the kon [7, 15] was 1.56e+07 ± 800000 M⁻¹ s⁻¹ and the Kd [7, 16] was 600 ± 100 nM. It also gave a koff [8, 14] of 6.1 ± 0.3 s⁻¹, a kon [8, 15] of 8.1e+06 ± 1.1e+06 M⁻¹ s⁻¹ and a Kd [8, 16] of 800 ± 100 nM. The koff [9, 14] was 6.7 ± 0.3 s⁻¹, the kon [9, 15] was 7e+06 ± 600000 M⁻¹ s⁻¹ and the Kd [9, 16] was 1000 ± 100 nM. For the same compound, the koff [10, 14] was 160 ± 10 s⁻¹, the kon [10, 15] was 8.2e+06 ± 1.7e+06 M⁻¹ s⁻¹ and the Kd [10, 16] was 20000 ± 200 nM. It also gave a koff [11, 14] of 4.5 ± 0.2 s⁻¹, a kon [11, 15] of 1.2e+07 ± 1.4e+06 M⁻¹ s⁻¹ and a Kd [11, 16] of 400 ± 100 nM. It also gave a koff [12, 14] of 3.6 ± 0.2 s⁻¹, a kon [12, 15] of 2.26e+07 ± 2.4e+06 M⁻¹ s⁻¹ and a Kd [12, 16] of 200 ± 100 nM. For the same compound, the koff [13, 14] was 3.5 ± 0.2 s⁻¹, the kon [13, 15] was 1.65e+07 ± 200000 M⁻¹ s⁻¹ and the Kd [13, 16] was 200 ± 100 nM.
